Reference: publication PMC9421654, “Discovery of Substituted Di(pyridin-2-yl)-1,2,4-thiadiazol-5-amines as Novel Macrofilaricidal Compounds for the Treatment of Human Filarial Infections” (Journal of Medicinal Chemistry, 2022)
In brackets after ≈: the same amount, converted by molar mass. Several values for one entry are separate records, joined by “and”; a condition that tells them apart may be missing. Equal values may be shown once. Read-outs that look alike come from different tables or passages of the source. Marks after values point to notes of the source that are not given here.

How the values were obtained:
P-gp (MDR1) = target: T1, P-gp (MDR1) (Homo sapiens, UniProt P08183); assay: MDCK/MDR1 permeability and efflux; format: in vitro ADME; conditions: dog
T1 construct: expressed in transfected cells; host or cells: MDCK (Madin Darby canine kidney) cells
T1 sequence (P08183 whole entry): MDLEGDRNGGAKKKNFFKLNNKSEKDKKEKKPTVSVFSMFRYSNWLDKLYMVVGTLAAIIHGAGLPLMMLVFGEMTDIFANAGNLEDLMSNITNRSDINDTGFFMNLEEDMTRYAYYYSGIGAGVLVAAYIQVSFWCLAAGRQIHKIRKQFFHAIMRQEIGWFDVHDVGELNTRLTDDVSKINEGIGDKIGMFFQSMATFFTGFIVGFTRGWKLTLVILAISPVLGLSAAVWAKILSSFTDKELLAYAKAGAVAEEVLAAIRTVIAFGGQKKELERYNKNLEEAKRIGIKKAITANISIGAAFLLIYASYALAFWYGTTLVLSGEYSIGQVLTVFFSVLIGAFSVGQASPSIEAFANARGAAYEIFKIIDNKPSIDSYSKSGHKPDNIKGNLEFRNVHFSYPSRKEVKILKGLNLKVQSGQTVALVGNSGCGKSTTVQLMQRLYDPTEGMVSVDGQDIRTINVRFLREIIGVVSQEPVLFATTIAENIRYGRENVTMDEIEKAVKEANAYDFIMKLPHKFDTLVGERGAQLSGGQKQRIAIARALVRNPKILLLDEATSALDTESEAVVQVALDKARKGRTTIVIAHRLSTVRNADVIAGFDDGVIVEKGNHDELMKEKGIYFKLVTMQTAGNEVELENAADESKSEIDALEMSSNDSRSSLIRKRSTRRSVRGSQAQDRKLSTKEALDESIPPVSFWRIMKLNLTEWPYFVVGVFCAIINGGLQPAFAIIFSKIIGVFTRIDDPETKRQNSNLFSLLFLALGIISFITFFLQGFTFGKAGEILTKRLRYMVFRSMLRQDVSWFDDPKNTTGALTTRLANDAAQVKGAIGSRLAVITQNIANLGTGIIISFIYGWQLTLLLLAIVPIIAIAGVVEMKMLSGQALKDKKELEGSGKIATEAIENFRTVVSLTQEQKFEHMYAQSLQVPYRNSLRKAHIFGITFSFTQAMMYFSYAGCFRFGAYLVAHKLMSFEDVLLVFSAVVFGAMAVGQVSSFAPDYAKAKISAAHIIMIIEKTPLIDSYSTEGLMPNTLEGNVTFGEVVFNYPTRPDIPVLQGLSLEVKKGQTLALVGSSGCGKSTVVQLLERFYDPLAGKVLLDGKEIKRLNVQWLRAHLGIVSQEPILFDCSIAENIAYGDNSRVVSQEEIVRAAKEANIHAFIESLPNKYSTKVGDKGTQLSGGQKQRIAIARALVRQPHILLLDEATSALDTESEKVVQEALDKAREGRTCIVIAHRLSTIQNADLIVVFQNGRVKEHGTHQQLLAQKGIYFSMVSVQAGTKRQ
Source text: (§1) Our approach was to target compounds with efflux ratio (ER) >2.5 in the MDCK cell line transfected with MDR1 (multidrug resistance-1 transfected Madin Darby canine kidney cell line). […] Our goal was to impart structural elements designed to impart Pgp recognition.

P-glycoprotein (MDR1) = target: T2, P-glycoprotein (MDR1) (Homo sapiens, UniProt P08183); assay: MDCK/MDR1 permeability and efflux; format: in vitro ADME; conditions: dog
T2 construct: expressed in transfected cells; host or cells: MDCK (Madin Darby canine kidney) cells
T2 sequence (P08183 whole entry): as above
Source text: as §1

[1] = Kinetic solubility measurement; format: physicochemical; conditions: for solubility kinetic at 24 h: 10 mM DMSO stock solutions
Procedure, shortened: (§2)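 Human and rat liver microsomes (0.3 mg/mL) with 1 mM NADPH and 3µM substrate, 30 minutes at 37 °C in pH 7.4 phosphate/MgCl2, triplicate; LC-MS/MS percentage remaining. LogD: octanol/aqueous buffer (pH 7.4, 2.2, 6.8, 5), 24 h shaking at room temperature. Kinetic solubility: 200 µM, 2% DMSO, 24 h, filtered.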

[2] = LogD measurement (octanol-water); format: physicochemical
Procedure, shortened: as §2

[3] = system: O. gutturosa adult male worms; assay: O. gutturosa adult worm ex vivo assay, motility; format: cell-based, Onchocerca gutturosa; conditions: Onchocerca gutturosa
Procedure, shortened: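 Adult male O. gutturosa from naturally infected cattle were cultured in supplemented MEM at 37 °C, 5% CO2, with four worms per concentration in serial 1-in-4 dilutions. Motility (0–10 scale) was scored every 24 h to 120 h. EC50 (geomean, n=2) for motility reduction came from 4PL fits, and viability was checked by MTT at 120 h.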

[4] = system: O. gutturosa adult male worms; assay: O. gutturosa adult worm ex vivo assay, MTT/formazan viability; format: cell-based, Onchocerca gutturosa; conditions: Onchocerca gutturosa, supplement; SD in brackets in the PDF table; read-out: O. gutturosa EC50 (uM) MTT viability inhibition
Procedure, shortened: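 Adult male worms from naturally infected Gambian cattle were kept individually in MEM with 10% newborn calf serum at 37 °C, 5% CO2; four worms per concentration. Motility was scored 0-10 every 24 h to 120 h as a percentage of maximum, with ≥50% reduction versus untreated counted active. Afterwards, MTT (0.5 mg/mL, 30 min) formazan was read at 490 nm.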

[5] = target: T3, hERG potassium channels (KCNH2, expressed in HEK293 cells) (Homo sapiens, UniProt Q12809); assay: hERG inhibition; format: cell-based; conditions: supplement
T3 construct: expressed in transfected cells
T3 sequence (Q12809 whole entry): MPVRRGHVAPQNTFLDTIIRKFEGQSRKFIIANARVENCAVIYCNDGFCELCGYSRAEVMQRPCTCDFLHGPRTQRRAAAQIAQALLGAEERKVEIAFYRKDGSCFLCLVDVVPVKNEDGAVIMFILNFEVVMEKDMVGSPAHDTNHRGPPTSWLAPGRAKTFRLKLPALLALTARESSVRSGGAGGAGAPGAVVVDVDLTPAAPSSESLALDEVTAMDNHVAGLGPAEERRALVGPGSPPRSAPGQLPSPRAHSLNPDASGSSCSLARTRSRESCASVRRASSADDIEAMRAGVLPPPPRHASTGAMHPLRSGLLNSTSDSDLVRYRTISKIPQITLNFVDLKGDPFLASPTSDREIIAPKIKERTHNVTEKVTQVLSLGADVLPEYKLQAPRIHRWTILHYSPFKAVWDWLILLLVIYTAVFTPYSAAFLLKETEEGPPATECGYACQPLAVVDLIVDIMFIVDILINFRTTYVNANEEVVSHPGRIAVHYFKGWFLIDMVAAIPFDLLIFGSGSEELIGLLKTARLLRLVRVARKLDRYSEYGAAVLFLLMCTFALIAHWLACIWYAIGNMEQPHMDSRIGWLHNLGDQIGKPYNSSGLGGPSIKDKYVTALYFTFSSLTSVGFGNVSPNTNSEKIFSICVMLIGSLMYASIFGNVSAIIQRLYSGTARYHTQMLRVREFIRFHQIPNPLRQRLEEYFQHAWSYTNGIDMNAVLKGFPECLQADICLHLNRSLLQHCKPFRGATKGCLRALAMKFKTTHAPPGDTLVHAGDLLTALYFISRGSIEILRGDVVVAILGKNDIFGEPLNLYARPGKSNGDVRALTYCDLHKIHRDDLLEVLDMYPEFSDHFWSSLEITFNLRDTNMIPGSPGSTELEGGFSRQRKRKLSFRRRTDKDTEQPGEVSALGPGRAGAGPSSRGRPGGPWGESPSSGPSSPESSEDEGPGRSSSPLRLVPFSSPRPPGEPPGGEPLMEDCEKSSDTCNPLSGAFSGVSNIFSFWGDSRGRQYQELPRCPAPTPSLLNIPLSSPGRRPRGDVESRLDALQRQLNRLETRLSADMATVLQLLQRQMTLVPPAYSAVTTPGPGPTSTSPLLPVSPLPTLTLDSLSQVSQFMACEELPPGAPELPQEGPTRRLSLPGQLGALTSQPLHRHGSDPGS

[6] = Liver microsome metabolic stability assay, human; format: in vitro ADME; conditions: 3 μM, 30 min
Description: (§3) Liver Microsome Metabolic Stability Assay: Incubations were performed at 37 °C in a Dubnoff Shaking water bath using 2 mL 96-well incubation plates. Liver microsome protein concentration was 0.3 mg/mL the final concentration of NADPH was 1 mM. Substrate concentrations are 3µM, incubation time is 30 minutes, and all tests are done in triplicate. The incubation was conducted in 200 mM Phosphate buffer containing 2 mM magnesium chloride, pH=7.4 and the total incubation volume was 0.5 mL. Samples were analyzed via LC-MS/MS and reported as percentage remaining after 30minute incubation, which can then be converted to half-life and intrinsic clearance. […]

[7] = Liver microsome metabolic stability assay, rat; format: in vitro ADME; conditions: Table 1; 3 μM, 30 min
Description: as §3

[8] = Liver microsome metabolic stability assay, mouse; format: in vitro ADME; conditions: Tables 2 and 3; footnote: tested in the mouse liver microsome assay; 3 μM, 30 min
Description: as §3

[9] = system: L. sigmodontis adult worms; conditions: mouse, in vivo
[10] = system: L. sigmodontis adult worms; assay: In vivo efficacy, L. sigmodontis-infected jirds; parameters: species or system jird (Meriones unguiculatus); conditions: 2 mg/kg QD 5d SC
Mouse pharmacokinetics = format: in vivo; conditions: male CD-1 mouse, PO 30 mg/kg suspension
Source text: All animal experiments were approved by the Institutional Animal Care and Use Committee (IACUC) of Bristol Myers Squibb.

[11] = Liver S9 metabolic stability assay, rat; format: in vitro ADME; conditions: 3 μM, 60 min
Procedure, shortened: (§4)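 Rat and human liver S9 (0.75 and 1.2 mg/ml) with 1 mM NADPH, 0.5 mM UDPGA, 2.5 mM GSH, 0.05 mg/ml PAPS, 3µM substrate, 60 min at 37 °C in Tris/MgCl2 pH 7.4. Mouse microsomes 0.3 mg/mL, 1 mM NADPH, 3µM, 30 min, phosphate pH 7.4. LC-MS/MS, % remaining, triplicate.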

[12] = Liver S9 metabolic stability assay, human; format: in vitro ADME; conditions: 3 μM, 60 min
Procedure, shortened: as §4

[13] = system: L. sigmodontis adult worms; parameters: method as in PMID 35834918; conditions: infected mice; cited from earlier work
THLE-2 cells = assay: THLE-2 cytotoxicity assay (ATP); conditions: Homo sapiens, THLE-2, 24 h, read-out: THLE IC50
Description: In vitro cytotoxicity of select compounds was tested in a “normal” proliferating transformed human liver epithelial (THLE-2) cell line.[35] Compounds were incubated in THLE-2 cells for 24 and 72 h, and adenosine triphosphate (ATP) levels were used as an indicator of cell viability.
THLE-2 Cytotoxicity Assay: THLE-2 cells (ATCC, catalog #CRL-2706) were plated in LHC-8 Media (Invitrogen, catalog #12679015) supplemented with fetal bovine serum (GE, catalog #SH30088.03), 70 ng/mL phosphoethanolamine (Sigma, catalog #P0503), 5 ng/mL EGF (Sigma, catalog #E9644), 1X penicillin/streptomycin (Gibco, catalog #15140148), and 1X glutamine (Invitrogen, catalog #25030024) in 384-well clear-bottom, black walled plates at a density of 3750 cells/well (15μL/well). After plating, cells were incubated overnight at 37°C in an incubator with 5% CO2 and 90% humidity. Compounds were first serially diluted in dimethyl sulfoxide then diluted in LHC-8 media growth media to 2X concentration. Cells were dosed with 15μL of each dose for final concentrations between 0.01 – 300 μM. Cells were incubated with compounds for 24 or 72 hours. Cytotoxicity was determined with Cell Titer Glo Luminescent ATP Assay (Promega, catalog #G7573) according to the manufacturer’s instructions. Tamoxifen (Sigma, catalog #BC9353476) was used as a positive control. levels at each dose were normalized to that of cells dosed with dimethyl sulfoxide vehicle alone and IC50 values were calculated from non-linear regression fits of dose-response curves plotted

[14] = supplement, read-out: measured logD
[15] = read-out: O. gutturosa EC50 μM (SD), ex vivo adult worm motility reduction, SD in brackets
[16] = read-out: O. gutturosa EC50 (uM) motility inhibition, supplement, SD in brackets in the PDF table

## CC(C)Oc1ccc(-c2nsc(Nc3ncccc3C(N)=O)n2)nc1 [Compound 59, 2-((3-(5-Isopropoxypyridin-2-yl)-1,2,4-thiadiazol-5-yl)amino)nicotinamide]
P-gp (MDR1)
  Papp A→B: 0.8 ×10⁻⁶ cm/s
P-glycoprotein (MDR1)
  Papp A→B: 0.79 ×10⁻⁶ cm/s
[1]
  solubility kinetic at 24 h: 0.3 µM (≈ 0.107 µg/mL)
[2]; pH 7.4, read-out: logD
  logD at 24 h: 1.6
[2]; [14]
  logD at 24 h: 1.6
[3]; [15]
  EC50: 2.6 µM
[4]
  EC50: 3.4 µM
[5]
  IC50: > 30 µM

## Cc1cccnc1Nc1nnc(-c2ccc(OC3CCOCC3)cn2)s1 [Compound 4, 3-Methyl-N-{5-[5-(oxan-4-yloxy)pyridin-2-yl]-1,3,4-thiadiazol-2-yl}pyridin-2-amine]
[1]
  solubility kinetic at 24 h: 0.4 µM (≈ 0.148 µg/mL)
[2]; [14]
  logD at 24 h: 2.7
[6]
  Human Microsomes: 100 % remaining
[3]; [15]
  EC50: 2.6 µM
[3]; [16]
  EC50: > 12 µM
[7]
  Rat Microsomes: 89 % remaining
[4]
  EC50: 2.8 µM

## CC(C)Oc1cnc(-c2nsc(Nc3ncccc3N(C)C)n2)cc1C(F)(F)F [Compound 34]
[1]; 24 h
  fold less soluble than 47: 10 fold
[2]; pH 7.4, read-out: logD
  logD at 24 h: 2.9
[2]; [14]
  logD at 24 h: 2.9
[6]
  Human Microsomes: 98 % remaining
[3]; [15]
  EC50: 0.04 µM
[3]; [16]
  EC50: 0.036 µM
[8]
  Rat Microsomes: 93 % remaining
[4]
  EC50: 0.53 µM

## Cc1cccnc1Nc1nc(-c2ncc(OC(C)C)cn2)ns1 [Compound 40, 3-(5-Isopropoxypyrimidin-2-yl)-N-(3-methylpyridin-2-yl)-1,2,4-thiadiazol-5-amine]
[1]
  solubility kinetic at 24 h: 12.3 µM (≈ 4.04 µg/mL)
[2]; pH 7.4, read-out: logD
  logD at 24 h: 2.9
[2]; [14]
  logD at 24 h: 2.9
[6]
  Human Microsomes: 96^c % remaining
[3]; [15]
  EC50: 2.35 µM
[8]
  Rat Microsomes: 90^c % remaining
[4]
  EC50: 2.9 µM

## Flubendazole [FBZ, reference compound]
[9]
  adult worm burden reduction: -98.8% and -100%
[10]; jirds infected SC with 40 L3 larvae (Fig 2C)
  adult worm burden reduction: -100%
[10]; patent, naturally infected jirds
  reduction of adult worm burden: -100%

## COc1ccc(Nc2nc(-c3ccccn3)cs2)nc1 [Compound 1]
Mouse pharmacokinetics
  AUC(0-inf): 1.58 ± 0.27 µM·h
  Cmax: 690 ± 180 nM
  Tmax: 30 ± 0 min
[11]
  Rat S9 metabolic stability: 51 % remaining
[3]; [15]
  EC50: 0.27 µM
[12]
  Human S9 metabolic stability: 59 % remaining
[4]
  EC50: 0.94 µM
[13]
  reduction of adult L. sigmodontis worms: 68%
THLE-2 cells
  IC50: 72.4 µM

## COc1ccc(Nc2nc(-c3ccccn3)ns2)nc1 [Compound 2]
[1]
  solubility kinetic at 24 h: 62.7 µM (≈ 17.9 µg/mL)
Mouse pharmacokinetics
  AUC(0-inf): 3.61 ± 0.86 µM·h
  Cmax: 1260 ± 290 nM
  Tmax: 78 ± 30 min
[6]
  Human Microsomes: 90 % remaining
[3]; [15]
  EC50: 1.7 µM
[7]
  Rat Microsomes: 78 % remaining
[4]
  EC50: 1.5 µM
THLE-2 cells
  IC50: > 300 µM

## Cc1cccnc1Nc1nsc(-c2ccc(OC3CCOCC3)cn2)n1 [Compound 5, N-(3-Methylpyridin-2-yl)-5-(5-((tetrahydro-2h-pyran-4-yl)oxy)pyridin-2-yl)-1,2,4-thiadiazol-3-amine]
[1]
  solubility kinetic at 24 h: 182 µM (≈ 67.2 µg/mL)
[2]; [14]
  logD at 24 h: 2.15
[6]
  Human Microsomes: 77 % remaining
[7]
  Rat Microsomes: 89 % remaining

## Cc1cccnc1Nc1nnc(-c2ccc(OC3CCOCC3)cn2)o1 [Compound 7, (3-Methyl-pyridin-2-yl)-{5-[5-(tetrahydro-pyran-4-yloxy)-pyridin-2-yl]-[1,3,4]oxadiazol-2-yl}-amine]
[1]
  solubility kinetic at 24 h: 12.8 µM (≈ 4.52 µg/mL)
[2]; [14]
  logD at 24 h: 1.55
[6]
  Human Microsomes: 83 % remaining
[3]; [15]
  EC50: 0.94 µM
[3]; [16]
  EC50: 0.935 µM
[7]
  Rat Microsomes: 39 % remaining
[4]
  EC50: 6.5 µM
